Measurements as given in patent publication US20090220562A1, “Osteogenic and anti-adipogenic oxysterols” (priority 2005, published 2009).

Legend:
Assay type in all cases: cell-based, mouse
[1] = test system: ERK1 and ERK2; assay: Western blot for native and phosphorylated ERK in M2 cells; conditions: 5 μM 20S oxysterol for 1, 4, or 8 hours
Procedure: Western blot analysis—After treatments, cells were lysed in lysis buffer, protein concentrations determined using the Bio-Rad protein assay (Hercules, Calif. U.S.A.), and SDS-PAGE performed as previously described. Probing for native and phosphorylated ERKs was performed as previously reported.
(A) M2 cells at confluence were pretreated for four hours with RPMI containing 1% FBS, followed by treatment with control vehicle or 5 μM 20S oxysterol for 1, 4, or 8 hours. Next total cell extracts were prepared and analyzed for levels of native or phosphorylated ERK (pERK) using specific antibodies as previously described. Data from a representative of four experiments are shown, each treatment shown in duplicate samples. (B) M2 cells at confluence were pretreated for 2 hours with control vehicle (C) or 20 μM PD98059 (PD) in osteogenic medium as previously described. Next, a combination of 22R and 20S oxysterols (RS, 5 μM each) were added to appropriate wells as indicated. After 10 days of incubation, matrix mineralization was quantified by the ^45Ca incorporation assay as previously described. […] (C) M2 cells at confluence were pretreated for 2 hours with 20 µM PD98059 (PD) in RPMI containing 5% FBS. […] After 10 days, adipocytes were visualized by oil Red O staining and quantified by light microscopy as previously described. […]

[2] = test system: osteocalcin mRNA; assay: Northern blotting for osteocalcin mRNA in M2-10B4 cells; conditions: for induction of osteocalcin gene expression by individual oxysterols: 0.5 to less than 10 μM, as many as 14 days (data not shown)
Procedure: RNA isolation and Northern blot analysis—Following treatment of cells under appropriate experimental conditions, total RNA was isolated using the RNA isolation kit from Stratagene (La Jolla, Calif., U.S.A.). Total RNA ([…]) was run on a 1% agarose/formaldehyde gel and transferred to Duralon-UV membranes (Strategene, CA, U.S.A.) and cross-linked with UV light. The membranes were hybridized overnight at 60 degree C. with ^32P-labeled mouse osteocalcin cDNA probe, mouse lipoprotein lipase (LPL), mouse adipocyte protein 2 (aP^2) PCR-generated probes, human 28S or 18S rRNA probes obtained from Geneka Biotechnology (Montreal, Quebec, Canada) and Maxim Biotech (San Francisco, Calif., U.S.A.), respectively. The PCR products were generated using primer sets synthesized by Invitrogen (Carlsbad, Calif., U.S.A.) with the following specifications: mouse aP2 gene (accession no. M13261); sense (75-95) 5′-[…]-3′, antisense (362-383) 5′-[…]-3′, generating a PCR product of 309 base pairs. Mouse LPL (accession no. XM—134193); sense (1038-1058) 5′-[…]-3′, antisense (1816-1836) 5′-[…]-3′, generating a PCR product of 799 base pairs. The PCR products were gel-purified and sequenced by the UCLA sequencing core, showing the highest similarity to their respective GenBank entries. Following hybridization, the blots were washed twice at room temperature with 2×SSC+0.1% SDS, and then twice at 60 degree C. with 0.5×SSC+0.1% SDS, and exposed to X-ray film. The extent of gene induction was determined by densitometry.
After 4 and 8 days, total RNA from duplicate samples was isolated and analyzed for osteocalcin (Osc) and 28S rRNA expression by Northern blotting as described. FIG. 3E is a radiogram of Northern blotting for osteocalcin mRNA in M2 cells exposed to a control or combination of oxysterols for 4 or 8 days. FIG. 3F is a bar graph depicting the relative demsometric units of osteocalcin mRNA in M2 cells exposed to a control or combination of oxysterols for 4 -or 8 days. Data from densitometric analysis of the Northern blot is shown in (F) as the average of duplicate samples, normalized to 28S rRNA.
Next, a combination of 22R and 20S oxysterols (RS, 2.5 μM each) were added in the presence or absence of SC as indicated. After 3 days, ALP activity was measured as described earlier. […] (B) M2 cells were treated as described in (A) and after 10 days matrix mineralization in cultures was quantified by a ^45Ca incorporation assay as described earlier. […] (C) M2 cells were pretreated with 20 μM SC for 4 hours, followed by the addition of RS in the presence or absence of SC as described above. After 8 days, total RNA was isolated and analyzed for osteocalcin (Osc) and […] expression by Northern blotting as previously described. Data from densitometric analysis of the Northern blot is shown in (D) as the average of duplicate samples, normalized to 18S rRNA. (E) M2 cells at confluence were pretreated for 2 hours with control vehicle (C), or PLA2 inhibitors ACA (25 μM) and AACOCF3 (AAC, 20 μM), in osteogenic medium. Next, a combination of 22R and 20S oxysterols (RS, 2.5 μM) was added in the presence or absence of the inhibitors as indicated. After 3 days, ALP activity was measured as previously described. […] (F) M2 cells were treated as described in (E). After 10 days, matrix mineralization in cultures was quantified using a ^45Ca incorporation assay as previously described. Results from a representative of three experiments are shown, reported as the mean of quadruplicate determinations ±SD, normalized to protein concentration (p<0.01 for RS vs. RS+ACA and RS+AAC).
ALP activity was measured after 2 days, as described. […] (B) M2 cells were treated as described in (A). After 10 days, matrix mineralization in cultures was quantified using a ^45Ca incorporation assay as described. […] (C) M2 cells were treated under similar conditions as those described above. […]

[3] = test system: marrow stromal cells; assay: Osteogenic differentiation of marrow stromal cells (marker not specified: ALP activity, osteocalcin mRNA, mineral formation); conditions: pretreatment and co-treatment; 20S 5-15 μM
Procedure: The purpose of the study was to identify other osteogenic and anti-adipogenic oxysterols based on the chemical structure of previously identified oxysterols. The ability of such candidate oxysterol molecules to induce the formation of osteoblastic cells in cultures of marrow stromal cells (which are progenitors of osteoblastic cells that make bone) were tested. In order to assess osteogenic differentiation of cells, one or more markers of osteogenic differentiation were measured in untreated cells and cells treated with the test oxysterols. These markers included: alkaline phosphatase activity, osteocalcin mRNA expression and mineral formation in cultures of marrow stromal cells. Activation of either one or more than one marker by a single or combination oxysterols is indicative of their osteogenic property.

| SMILES | activation of ERK1 and ERK2 [1] | induction of osteocalcin gene expression by individual oxysterols [2] | osteocalcin mRNA expression ([2]; doses of 5-15 μM) | enhancement of 20S-hydroxycholesterol's induction of ALP activity, Runx2 DNA binding and protein expression, osteocalcin mRNA expression and mineralization [3] |
| --- | --- | --- | --- | --- |
| CC(C)CCC[C@](C)(O)[C@H]1CC[C@H]2[C@@H]3CC=C4C[C@@H](O)CC[C@]4(C)[C@H]3CC[C@@]21C [20S-hydroxycholesterol] | sustained activation | unable to induce | induction | – |
| CC(C)CC[C@@H](O)[C@@H](C)[C@H]1CC[C@H]2[C@@H]3CC=C4C[C@@H](O)CC[C@]4(C)[C@H]3CC[C@]12C [22R-hydroxycholesterol] | – | unable to induce | – | greatly enhanced |
| CC(C)CC[C@H](O)[C@@H](C)[C@H]1CC[C@H]2[C@@H]3CC=C4C[C@@H](O)CC[C@]4(C)[C@H]3CC[C@]12C [22S-hydroxycholesterol] | – | unable to induce | – | greatly enhanced |
